Laboratory results: PMC12338828, “Evaluation of organotin (IV) dithiocarbamate compounds as potential anti-leukemia agents towards CCRF-CEM (CCL-119) cell line: Cytotoxic, apoptotic, cell cycle and genotoxic study” (PLOS One, 2025)
Where “and” joins values, the source holds several entries; their conditions need not be identical. Identical values can stand only once. Like-named read-outs stand apart in the source and are kept apart here.

What was measured:
CCL-119 cells [1] = assay: MTT cytotoxicity assay; settings: for cell viability at 0.31 µM / cell viability at 0.63 µM / cell viability at 1.25 µM / cell viability at 2.50 µM / cell viability at 5.00 µM / Selectivity Index (SI): 24 hours; for cell viability at 0.31 µM / cell viability at 0.63 µM / cell viability at 1.25 µM / cell viability at 2.50 µM / cell viability at 5.00 µM: single replicates n1-n3, untreated = 100.00; for cell viability at 2.50 µM: 2.5 µM; for Selectivity Index (SI): IC50 WIL2-NS / IC50 CCL-119; for IC50: read-out: IC50 (µM) CCL-119, 24 hours of exposure, mean ± SEM, n = 3
Method: The T-acute lymphoblastic leukemia cell line, CCRF-CEM (CCL-119™), and a non-cancerous cell, WIL2-NS (CRL-8155™), were purchased from the American Type Culture Collection (ATCC). Both are suspension types of cells and were cultured in Roswell Park Memorial Institute Medium 1640 (RPMI-1640) (Sigma-Aldrich), supplemented with 10% Fetal Bovine Serum (FBS) (Capricorn Scientific) and 1% penicillin-streptomycin (Nacalai Tesque) to obtain the complete growth medium and were incubated at 37 °C with a 5% CO2 incubator. Both suspension cells are used for tests when the cells’ passage becomes passage 3–10 (maximum).
All stock solutions of the organotin (IV) dithiocarbamate compounds were prepared at 10 mM and dissolved in dimethyl sulphoxide (DMSO) (ChemAR®). The stock solutions were stored at 4°C; fresh dilutions were made by adding the RPMI-1640 medium before the experiment. The dilution is carried out using the serial dilution method to obtain the desired concentrations, which are 5 µM, 2.5 µM, 1.25 µM, 0.63 µM, 0.32 µM, and 0.16 µM in this study. Vincristine (VCR) is used as a positive control in this study.
Both CCL-119 and WIL2-NS cells were seeded in a 96-well plate at a final concentration of 5 x 10^5 cells/well and treated with 5 µM, 2.5 µM, 1.25 µM, 0.63 µM, 0.32 µM, and 0.16 µM of organotin (IV) dithiocarbamate compound for 24 hours at 37°C with 5% CO2. VCR was used as a positive control in this study, while cells without treatment were used as a negative control. After 24 hours of exposure, 20 µL of MTT (Merck) salt solution was added into each well and incubated for another 4 hours. The plate was wrapped with aluminium foil as MTT salt is light sensitive. After 4 hours, the purple crystal formazan was formed. All the medium was removed carefully from each well, and 200 µL DMSO was added to each well to dissolve the purple formazan crystal. Then, the plates were incubated for an additional 15 minutes. The results were analyzed and recorded using an ELISA microplate reader at 570 nm. The data was then plotted into a graph, and IC50 values were determined.
The selectivity index (SI) is determined by dividing the cytotoxic activity (IC50 value) of each compound on a non-cancerous cell line (WIL2-NS) by the leukemia cell line (CCL-119). […] WIL2- NS cell lines were selected as the comparator because it is a non-cancerous human B lymphoblast cell line, which is like CCL-119 (T-lymphoblastic leukemia), derived from lymphocytes. This choice ensures that comparisons are made between biologically similar cell types, minimizing variability that could arise from differences in tissue origin or lineage.

CCL-119 cells [2] = assay: Mode of cell death, Annexin V-FITC/PI staining (flow cytometry); assay type: cell-based; settings: for Early Apoptosis (Q4) / Late Apoptosis (Q2) / Necrosis (Q1) / Viable (Q3): 24 hours at IC50, single replicates n1-n3; for cell death through apoptosis (population of cells): early + late apoptosis
Method: The mode of cell death can be observed through the Annexin V-FITC/PI staining (BD, USA). The result of this test is either apoptosis or necrosis. […] VCR was used as a positive control, while cells without any treatment were used as a negative control. Then, the plate was incubated for 24 hours. After the incubation, the cell suspension in each well was collected into different Eppendorf tubes. The tubes were then centrifuged for 5 minutes at 1500 rpm at 4°C. After the centrifuge, the supernatant in the tubes was removed, and the cell pellets were washed twice with cold PBS. Then, centrifuge the tubes again and remove the supernatant. Next, 100 µL of Annexin V binding buffer was resuspended in each tube, and 5 µL Annexin V-FITC was pipetted into the tube to stain the cells for 15 minutes at room temperature, dark. After that, 5 µL of propidium iodide was piped into the tube for 5 minutes. The staining process is done in dark conditions. Lastly, the sample was transferred into the Falcon tube, and each tube was resuspended in 400 µL of Annexin V binding buffer. The sample was analyzed using a flow cytometer (BD FACS Canto II) within one hour.

CCL-119 cells [3] = assay: Cell cycle analysis (PI/RNase staining); assay type: cell-based; settings: for cells in G0/G1 phase / cells in G2/M phase / cells in S phase: 24 hours at IC50, single replicates n1-n3
Method: The cells were cultured and seeded in a 6-well plate at 1 x 10^6 cells/mL. VCR was used as a positive control, and untreated cells were used as a negative control in this assay. The concentration of the compounds and VCR was followed by IC50 values that were taken from the MTT assay.
After 24 hours of incubation, all cells in the plate were transferred to the Eppendorf tube and centrifuged for 5 minutes at 4°C at 1500 rpm. After centrifuging, the supernatant was removed, and cells were washed with 500 µL cold PBS three times. The pellet was fixed by using 70% ethanol overnight at −20°C. Next, the samples were stained with 500 µL of PI/RNase staining buffer and incubated for 15 minutes. The samples were then transferred into Falcon tubes. The data was recorded using a flow cytometer and analyzed using ModFit LT software.

CCL-119 cells [4] = assay: Alkaline comet assay; assay type: cell-based
Method: VCR was used as a positive control, and untreated cells were used as a negative control in this assay. The cells were incubated for 1 hour. After incubation, cells in each well were transferred to the Eppendorf tube to centrifuge for 5 minutes at 4°C by using a refrigerated microcentrifuge. The supernatant was removed, and the samples were washed with 1 mL of cold PBS. This process was repeated 3 times. After completion of the process, the supernatant was removed, and the pellet was left for a while on top of the ice while preparing the slide.
About 140 µL of normal melting agar (NMA) is pipetted on top of the fully frosted slide, and a cover slip is put on the agar for 5 minutes or until the agar fully solidifies. After that, the cover slip was removed, and 80 µL of low melting agar (LMA) was added to an Eppendorf tube containing the pellet of cells. The suspension was then transferred into a frosted slide with NMA agar. The cover slip was then put back on top of the frosted slide for 10 minutes or until dry. Next, the slide was transferred into a Coplin jar that contained lysis buffer solution and Triton X-100. The slides were then incubated at 4°C overnight. The slides were arranged on an electrophoresis tank filled with electrophoresis buffer for 20 minutes. Electrophoresis is done for another 20 minutes at 25 V with 300 mA. The slides were washed with a neutralization buffer solution 3 times at a 5-minute time interval. Finally, 30 µL of ethidium bromide (50 µg/mL) was added, and the slide was observed by using fluorescence microscopy (OLYMPUS BX51TR). CometScore software is used to analyze the DNA damage of the cells. The comet assay was performed under alkaline conditions (pH > 13) to detect both single- and double-strand DNA breaks.

WIL2-NS cells = test system: WIL2-NS cells; design: method as in Rasli et al. (2023); settings: non-cancerous cells; 24 hours of exposure; graph referred to earlier paper; ref Rasli et al. (2023); cited from earlier work
[5] = 1 hour of exposure, single replicates n1-n3

Row | Structure (SMILES) | cell viability at 0.31 µM (CCL-119 cells [1]) | cell viability at 0.63 µM (CCL-119 cells [1]) | cell viability at 1.25 µM (CCL-119 cells [1]) | cell viability at 2.50 µM (CCL-119 cells [1]) | cell viability at 5.00 µM (CCL-119 cells [1]) | Selectivity Index (SI) (CCL-119 cells [1]) | Early Apoptosis (Q4) (CCL-119 cells [2]) | Late Apoptosis (Q2) (CCL-119 cells [2]) | Necrosis (Q1) (CCL-119 cells [2]) | Viable (Q3) (CCL-119 cells [2]) | cells in G0/G1 phase (CCL-119 cells [3]) | cells in G2/M phase (CCL-119 cells [3]) | cells in S phase (CCL-119 cells [3]) | Tail moment (CCL-119 cells [4]; 1 hour of exposure, mean ± SEM) [A.U] | percentage of DNA intensity in the tail (CCL-119 cells [4]; 1 hour of exposure, mean ± SEM) [%] | % DNA intensity (CCL-119 cells [4]; [5]) | Tail moment (CCL-119 cells [4]; [5]) | IC50 (WIL2-NS cells) [µM] | IC50 (CCL-119 cells [1]) [µM] | cell death through apoptosis (population of cells) (CCL-119 cells [2]; 24 hours, treated at IC50) [%] | also measured
1 | C=CCN(CC=C)C(=S)[S][Sn]([c]1ccccc1)([c]1ccccc1)[c]1ccccc1 [ODTC 4, triphenyltin (IV) diallyl dithiocarbamate] | 30.40% and 42.75% and 41.34% | 24.51% and 37.25% and 30.23% | 26.67% and 22.56% and 24.61% | 25.39% and 26.40% and 25.55% | 20.16% and 12.33% and 18.27% | 4.19 | 41.4% and 46.5% and 27% | 15.2% and 19.2% and 9.9% | 0.2% and 0.1% | 43.2% and 34.2% and 63% | 45.09% and 46.03% and 29.64% | 8.07% and 7.1% and 0% | 46.84% and 46.87% and 70.36% | 25.83 ± 2.60 | 14.24 ± 0.94 | 12.9244% and 13.7623% and 16.0541% | 29.2637 A.U and 27.4848 A.U and 20.7304 A.U | 0.67 ± 0.14 |  |  | Phases of Cell Cycle Arrest (CCL-119 cells [3]; 24 hours at IC50 concentrations): S phase
2 | CCN(CC)C(=S)[S][Sn]([c]1ccccc1)([c]1ccccc1)[c]1ccccc1 [ODTC 5, triphenyltin (IV) diethyl dithiocarbamate] | 37.70% and 42.75% and 36.81% | 39.38% and 30.79% and 37.35% | 35.19% and 39.06% and 29.63% | 37.67% and 28.99% and 27.66% | 16.16% and 17.11% and 21.93% | 4.16 | 10.9% and 47.3% and 16.6% | 6.4% and 17.1% and 18.5% | 12.9% and 0.1% | 69.8% and 35.6% and 64.8% | 64.02% and 86.49% and 54.56% | 30.58% and 13.51% and 45.44% | 5.4% and 0% | 12.61 ± 1.56 | 11.59 ± 1.18 | 13.8528% and 11.0312% and 9.872% | 15.0222 A.U and 13.1179 A.U and 9.676 A.U | 0.79 ± 0.05 |  |  | population of cells undergoing necrosis (CCL-119 cells [2]; 24 hours, treated at IC50): 4.37%
3 | CC(C)N(C(=S)[S][Sn]([CH3])([CH3])[S]C(=S)N(C(C)C)C(C)C)C(C)C [ODTC 6, dimethyltin (IV) diisopropyl dithiocarbamate] | 58.47% and 122.11% and 74.00% | 54.60% and 100.55% and 42.63% | 68.83% and 73.56% and 74.68% | 43.76% and 67.94% and 56.55% | 56.86% and 66.74% and 57.64% |  | 44.7% and 48.9% and 45.6% | 33.5% and 23.8% and 26.2% | 0.1% and 0.3% and 0.2% | 21.6% and 27% and 28.1% | 65.00% and 60.00% and 55.00% | 4.80% and 5.00% and 2.80% | 30.20% and 35.00% and 42.20% |  |  | 4.005% and 4.8% and 5.931% | 3.51 A.U and 4.102 A.U and 5.014 A.U | 5 ± 1.04 | 3.1 ± 1.08 | 74.2 | DNA damage / genotoxic effect (in words) (CCL-119 cells [4]): no DNA damage
4 | CCN(CC)C(=S)[S][Sn]([CH3])([CH3])[S]C(=S)N(CC)CC [ODTC 7, dimethyltin (IV) diethyl dithiocarbamate] | 53.85% and 25.00% and 27.93% | 22.79% and 38.51% and 14.94% | 25.40% and 25.00% and 5.26% | 11.18% and 20.05% and 9.03% | 4.79% and 42.34% and 14.76% |  | 24.7% and 24.4% and 29.9% | 70.3% and 71.5% and 65.3% | 0.7% and 0.4% | 4.4% and 3.7% and 4.2% | 70.20% and 67.80% and 60.00% | 1.80% and 0.20% and 1.00% | 28.00% and 32.00% and 39.00% |  |  | 6.521% and 7.002% and 7.823% | 5.822 A.U and 6.511 A.U and 7.52 A.U | 0.5 ± 0.34 | 0.5 ± 0.3 | 95.6 | DNA damage / genotoxic effect (in words) (CCL-119 cells [4]; 1 hour of exposure, damage when TM > 5 A.U. and TI > 10%): no DNA damage
